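The compound was tested at five concentrations on cells cultured in 96-well plates, with a 48-hour exposure period. At the GI50, growth is halved. TGI: total growth inhibition.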
How the values were obtained:
Assay in all cases: NCI-60 cell line screen, 48 h
786-0 renal = tested on: 786-0 renal
A498 renal = tested on: A498 renal
A549 NSCLC = tested on: A549 NSCLC
ACHN renal = tested on: ACHN renal
BT-549 breast = tested on: BT-549 breast
CAKI-1 renal = tested on: CAKI-1 renal
CCRF-CEM leukemia = tested on: CCRF-CEM leukemia
COLO 205 colon = tested on: COLO 205 colon
DU-145 prostate = tested on: DU-145 prostate
EKVX NSCLC = tested on: EKVX NSCLC
HCC-2998 colon = tested on: HCC-2998 colon
HCT-116 colon = tested on: HCT-116 colon
HCT-15 colon = tested on: HCT-15 colon
HL-60(TB) leukemia = tested on: HL-60(TB) leukemia
HOP-62 NSCLC = tested on: HOP-62 NSCLC
HOP-92 NSCLC = tested on: HOP-92 NSCLC
HS 578T breast = tested on: HS 578T breast
HT29 colon = tested on: HT29 colon
IGROV1 ovarian = tested on: IGROV1 ovarian
K-562 leukemia = tested on: K-562 leukemia
KM12 colon = tested on: KM12 colon
LOX IMVI melanoma = tested on: LOX IMVI melanoma
M14 melanoma = tested on: M14 melanoma
MALME-3M melanoma = tested on: MALME-3M melanoma
MCF7 breast = tested on: MCF7 breast
MDA-MB-231 breast = tested on: MDA-MB-231 breast
MDA-MB-435 = tested on: MDA-MB-435
MOLT-4 leukemia = tested on: MOLT-4 leukemia
NCI-H226 lung = tested on: NCI-H226 lung
NCI-H23 lung = tested on: NCI-H23 lung
NCI-H460 lung = tested on: NCI-H460 lung
NCI-H522 lung = tested on: NCI-H522 lung
NCI/ADR-RES ovarian = tested on: NCI/ADR-RES ovarian
OVCAR-3 ovarian = tested on: OVCAR-3 ovarian
OVCAR-4 ovarian = tested on: OVCAR-4 ovarian
OVCAR-5 ovarian = tested on: OVCAR-5 ovarian
OVCAR-8 ovarian = tested on: OVCAR-8 ovarian
PC-3 prostate = tested on: PC-3 prostate
RPMI-8226 leukemia = tested on: RPMI-8226 leukemia
RXF 393 renal = tested on: RXF 393 renal
SF-268 CNS = tested on: SF-268 CNS
SF-295 CNS = tested on: SF-295 CNS
SF-539 CNS = tested on: SF-539 CNS
SK-MEL-2 melanoma = tested on: SK-MEL-2 melanoma
SK-MEL-28 melanoma = tested on: SK-MEL-28 melanoma
SK-MEL-5 melanoma = tested on: SK-MEL-5 melanoma
SK-OV-3 ovarian = tested on: SK-OV-3 ovarian
SN12C renal = tested on: SN12C renal
SNB-19 CNS = tested on: SNB-19 CNS
SNB-75 CNS = tested on: SNB-75 CNS
SR leukemia = tested on: SR leukemia
SW-620 colon = tested on: SW-620 colon
T-47D breast = tested on: T-47D breast
TK-10 renal = tested on: TK-10 renal
U251 CNS = tested on: U251 CNS
UACC-257 melanoma = tested on: UACC-257 melanoma
UACC-62 melanoma = tested on: UACC-62 melanoma
UO-31 renal = tested on: UO-31 renal

In the case of `COC1=C(C)C(=O)N2[C@@H]1[C@H](c1ccccc1)OC21C=CC(=O)C=C1`, the GI50 (786-0 renal) is reported as 2.86 µM, the TGI (786-0 renal) is reported as 8.22 µM and the GI50 (A498 renal) is reported as 27.4 µM. It also gave a TGI (A498 renal) greater than 89.4 µM, a GI50 (A549 NSCLC) of 10.8 µM and a TGI (A549 NSCLC) of 38.9 µM. It also gave a GI50 (ACHN renal) of 0.658 µM, a TGI (ACHN renal) of 1.36 µM and a GI50 (BT-549 breast) of 2.97 µM. For the same molecule, the TGI (BT-549 breast) was 9.47 µM, the GI50 (CAKI-1 renal) was 0.804 µM and the TGI (CAKI-1 renal) was 2.39 µM. For the same molecule, the GI50 (CCRF-CEM leukemia) was 0.925 µM, the TGI (CCRF-CEM leukemia) was 3.87 µM and the GI50 (COLO 205 colon) was 2.56 µM. For the same molecule, the TGI (COLO 205 colon) was 7.81 µM, the GI50 (DU-145 prostate) was 3.69 µM and the TGI (DU-145 prostate) was 19.1 µM. The GI50 (EKVX NSCLC) was 10.7 µM, the TGI (EKVX NSCLC) was greater than 33.8 µM and the GI50 (HCC-2998 colon) was 5.86 µM. It also gave a TGI (HCC-2998 colon) of 10.9 µM, a GI50 (HCT-116 colon) of 0.984 µM and a TGI (HCT-116 colon) of 3.81 µM. The GI50 (HCT-15 colon) was 0.697 µM, the TGI (HCT-15 colon) was 2.21 µM and the GI50 (HL-60(TB) leukemia) was 0.922 µM. The TGI (HL-60(TB) leukemia) was 4.57 µM, the GI50 (HOP-62 NSCLC) was 10.8 µM and the TGI (HOP-62 NSCLC) was 24.9 µM. For the same molecule, the GI50 (HOP-92 NSCLC) was 2.48 µM, the TGI (HOP-92 NSCLC) was 7.65 µM and the GI50 (HS 578T breast) was 12.5 µM. The TGI (HS 578T breast) was greater than 40.9 µM, the GI50 (HT29 colon) was 1.28 µM and the TGI (HT29 colon) was 4.28 µM. For the same molecule, the GI50 (IGROV1 ovarian) was 6.83 µM, the TGI (IGROV1 ovarian) was 21.7 µM and the GI50 (K-562 leukemia) was 1.11 µM. For the same molecule, the TGI (K-562 leukemia) was greater than 67 µM, the GI50 (KM12 colon) was 5.99 µM and the TGI (KM12 colon) was 12.9 µM. For the same molecule, the GI50 (LOX IMVI melanoma) was 0.757 µM, the TGI (LOX IMVI melanoma) was 2.69 µM and the GI50 (M14 melanoma) was 4.39 µM. It also gave a TGI (M14 melanoma) of 12.5 µM, a GI50 (MALME-3M melanoma) of 1.08 µM and a TGI (MALME-3M melanoma) of 4.32 µM. It also gave a GI50 (MCF7 breast) of 1.07 µM, a TGI (MCF7 breast) of 5.39 µM and a GI50 (MDA-MB-231 breast) of 2.77 µM. It also gave a TGI (MDA-MB-231 breast) of 9.27 µM, a GI50 (MDA-MB-435) of 1.97 µM and a TGI (MDA-MB-435) of 7.32 µM. For the same molecule, the GI50 (MOLT-4 leukemia) was 2.23 µM, the TGI (MOLT-4 leukemia) was 11 µM and the GI50 (NCI-H226 lung) was 9.79 µM. For the same molecule, the TGI (NCI-H226 lung) was greater than 31.1 µM, the GI50 (NCI-H23 lung) was 4.07 µM and the TGI (NCI-H23 lung) was 18.5 µM. For the same molecule, the GI50 (NCI-H460 lung) was 8.13 µM, the TGI (NCI-H460 lung) was 21.8 µM and the GI50 (NCI-H522 lung) was 0.555 µM. The TGI (NCI-H522 lung) was 1.35 µM, the GI50 (NCI/ADR-RES ovarian) was 3.36 µM and the TGI (NCI/ADR-RES ovarian) was greater than 47.4 µM. For the same molecule, the GI50 (OVCAR-3 ovarian) was 1.09 µM, the TGI (OVCAR-3 ovarian) was 3.74 µM and the GI50 (OVCAR-4 ovarian) was 3.51 µM. The TGI (OVCAR-4 ovarian) was 16.6 µM, the GI50 (OVCAR-5 ovarian) was 3.78 µM and the TGI (OVCAR-5 ovarian) was 11.6 µM. It also gave a GI50 (OVCAR-8 ovarian) of 1.1 µM, a TGI (OVCAR-8 ovarian) greater than 36.5 µM and a GI50 (PC-3 prostate) of 7.81 µM. For the same molecule, the TGI (PC-3 prostate) was greater than 32 µM, the GI50 (RPMI-8226 leukemia) was 1.33 µM and the TGI (RPMI-8226 leukemia) was 8.44 µM. It also gave a GI50 (RXF 393 renal) of 1.42 µM, a TGI (RXF 393 renal) of 6.26 µM and a GI50 (SF-268 CNS) of 8.89 µM. The TGI (SF-268 CNS) was 31.9 µM, the GI50 (SF-295 CNS) was 15.5 µM and the TGI (SF-295 CNS) was 46.9 µM. For the same molecule, the GI50 (SF-539 CNS) was 4.73 µM, the TGI (SF-539 CNS) was 11.5 µM and the GI50 (SK-MEL-2 melanoma) was 6.92 µM. It also gave a TGI (SK-MEL-2 melanoma) of 19.6 µM, a GI50 (SK-MEL-28 melanoma) of 1.2 µM and a TGI (SK-MEL-28 melanoma) of 6.68 µM. For the same molecule, the GI50 (SK-MEL-5 melanoma) was 5.05 µM, the TGI (SK-MEL-5 melanoma) was 9.94 µM and the GI50 (SK-OV-3 ovarian) was greater than 41.9 µM. It also gave a TGI (SK-OV-3 ovarian) greater than 100 µM, a GI50 (SN12C renal) of 3.64 µM and a TGI (SN12C renal) of 27.7 µM. It also gave a GI50 (SNB-19 CNS) of 42.8 µM, a TGI (SNB-19 CNS) greater than 100 µM and a GI50 (SNB-75 CNS) of 12.1 µM. For the same molecule, the TGI (SNB-75 CNS) was 50 µM, the GI50 (SR leukemia) was 0.673 µM and the TGI (SR leukemia) was 15.5 µM. It also gave a GI50 (SW-620 colon) of 0.923 µM, a TGI (SW-620 colon) of 2.78 µM and a GI50 (T-47D breast) of 1.73 µM. The TGI (T-47D breast) was 9.99 µM, the GI50 (TK-10 renal) was 1.41 µM and the TGI (TK-10 renal) was 6.29 µM. It also gave a GI50 (U251 CNS) of 5.61 µM, a TGI (U251 CNS) of 11 µM and a GI50 (UACC-257 melanoma) of 4.97 µM. The TGI (UACC-257 melanoma) was 15.5 µM, the GI50 (UACC-62 melanoma) was 1.35 µM and the TGI (UACC-62 melanoma) was 5.51 µM. It also gave a GI50 (UO-31 renal) of 1.31 µM and a TGI (UO-31 renal) of 3.88 µM.

— PubChem BioAssay (NCI)
